Results as given in patent publication EP0595557A1, “New substituted azetidinones as anti-inflammatory and antidegenerative agents” (MERCK & CO. INC., priority 1992, dated 1994).

Target: T1, Human Polymorphonuclear Leukocyte Elastase (Homo sapiens, UniProt P08246)
T1 construct: Crude extract of human polymorphonuclear leukocytes (PMN) containing elastase activity; from tissue; host or cells: human polymorphonuclear leukocytes (crude extract)
T1 sequence (P08246 30-267): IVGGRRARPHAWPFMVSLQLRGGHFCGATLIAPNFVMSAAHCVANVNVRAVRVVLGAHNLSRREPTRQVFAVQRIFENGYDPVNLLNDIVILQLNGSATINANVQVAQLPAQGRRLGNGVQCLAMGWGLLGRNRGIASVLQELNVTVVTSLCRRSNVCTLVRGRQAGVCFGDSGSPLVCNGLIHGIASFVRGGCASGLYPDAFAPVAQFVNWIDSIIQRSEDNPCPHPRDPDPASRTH
Assay: Enzyme assay for inhibition of human polymorphonuclear leukocyte elastase via hydrolysis of Boc-AAPAN or Boc-AAPVN
Assay type: biochemical
Settings: pH 7.5, second order rate constant for inactivation of the enzyme, expressed to the nearest thousand, read-out: Kobs/[I]
Description: Enzyme Assays for the Inhibition of Human Polymorphonuclear Leukocyte Elastase Via Hydrolysis of N-t-Boc-alanyl-alanyl-prolylalanine-p-nitroanilide (Boc-AAPAN) or N-t-Boc-alanyl-prolylvaline-p-nitro-anilide (Boc-AAPVN) Reagent:
0.05M TES (N-tris[hydroxymethyl]methyl-2-mino-ethanesulfonic acid) Buffer, pH 7.5.
0.2 mM Boc-AAPAN or Boc-AAPVN.
To prepare substrate, the solid was first dissolved in 10.0 ml DMSO. Buffer at pH 7.5 was then added to a final volume of 100 ml.
Crude extract of human polymorphonuclear leukocytes (PMN) containing elastase activity.
Inhibitors (azetidinones) to be tested dissolved in DMSO just before use.
To 1.0 ml of 0.2 mM Boc-AAPAN in a cuvette, 0.01-0.1 ml of DMSO with or without inhibitor was added. After mixing, a measurement was taken at 410 mµ to detect any spontaneous hydrolysis due to presence of test compound. 0.05 Milliliters of PMN extract was then added and the ΔOD/min at 410 mµ was measured and recorded. Beckman model 35 spectrophotometer was used.
Results were expressed to the nearest thousand ^kobs/I which is the second order rate constant in per mole per second for inactivation of the enzyme.
The elastase activity in the crude PMN extract may vary from one preparation to another. A control of each new batch is run, and the volume added in the assay procedure is adjusted according to activity.

Work on `CCC[C@@H](NC(=O)N1C(=O)C(CC)(CC)[C@@H]1Oc1ccc(CC(=O)N2CCN(C)CC2)cc1)c1ccc(C)cc1` [Compound 41] yielded a kinact/KI of 974000 M⁻¹ s⁻¹.

With `CCC[C@@H](NC(=O)N1C(=O)C(CC)(CC)[C@@H]1Oc1ccc(CC(=O)N2CCOCC2)cc1)c1ccc(C)cc1` [Compound 42] the kinact/KI was 1.09e+06 M⁻¹ s⁻¹.

In the case of `CCC[C@@H](NC(=O)N1C(=O)C(CC)(CC)[C@@H]1Oc1ccc(CC(=O)NCCN(C)C)cc1)c1ccc(C)cc1` [Compound 43], the kinact/KI is reported as 1.21e+06 M⁻¹ s⁻¹.

For `CCC[C@@H](NC(=O)N1C(=O)C(CC)(CC)[C@@H]1Oc1ccc(CC(=O)N(C)CCN(C)C)cc1)c1ccc(C)cc1` [Compound 44], the kinact/KI was 1.24e+06 M⁻¹ s⁻¹.

Work on `CCC[C@@H](NC(=O)N1C(=O)C(CC)(CC)[C@@H]1Oc1ccc(CC(=O)NCCCN(C)C)cc1)c1ccc(C)cc1` [Compound 45] yielded a kinact/KI of 1.12e+06 M⁻¹ s⁻¹.

`CCC[C@@H](NC(=O)N1C(=O)C(CC)(CC)[C@@H]1Oc1ccc(CC(=O)NCCc2ccncc2)cc1)c1ccc(C)cc1` [Compound 46] was tested, and the kinact/KI was 2.25e+06 M⁻¹ s⁻¹.

In the case of `CCC[C@@H](NC(=O)N1C(=O)C(CC)(CC)[C@@H]1Oc1ccc(CC(=O)NCC(=O)O)cc1)c1ccc(C)cc1` [Compound 47], the kinact/KI is reported as 876000 M⁻¹ s⁻¹.

Molecule `CCC[C@@H](NC(=O)N1C(=O)C(CC)(CC)[C@@H]1Oc1ccc(CC(=O)NC(C)C(=O)O)cc1)c1ccc(C)cc1` (stereo partly drawn) [Compound 48] has a kinact/KI of 676000 M⁻¹ s⁻¹.

In the case of `CCC[C@@H](NC(=O)N1C(=O)C(CC)(CC)[C@@H]1Oc1ccc(CC(=O)NCC(=O)N(CCO)CCO)cc1)c1ccc(C)cc1` [Compound 49], the kinact/KI is reported as 1.3e+06 M⁻¹ s⁻¹.

In the case of `CCC[C@@H](NC(=O)N1C(=O)C(CC)(CC)[C@@H]1Oc1ccc(CC(=O)N(C)CC(=O)O)cc1)c1ccc(C)cc1` [Compound 50], the kinact/KI is reported as 989000 M⁻¹ s⁻¹.

Work on `CCC[C@@H](NC(=O)N1C(=O)C(CC)(CC)[C@@H]1Oc1ccc(CC(=O)NC(C)C(=O)N(CCO)CCO)cc1)c1ccc(C)cc1` (stereo partly drawn) [Compound 51] yielded a kinact/KI of 939000 M⁻¹ s⁻¹.

`CCC[C@@H](NC(=O)N1C(=O)C(CC)(CC)[C@@H]1Oc1ccc(CC(=O)N(C)CC(=O)N(CCO)CCO)cc1)c1ccc(C)cc1` [Compound 52] was tested, and the kinact/KI was 273000 M⁻¹ s⁻¹.

`CCC[C@@H](NC(=O)N1C(=O)C(CC)(CC)[C@@H]1Oc1ccc(CC(=O)N(C)CCN2CCOCC2)cc1)c1ccc(C)cc1` [Compound 53] was tested, and the kinact/KI was 2.51e+06 M⁻¹ s⁻¹.

`CCC[C@@H](NC(=O)N1C(=O)C(CC)(CC)[C@@H]1Oc1ccc(CC(=O)N(C)CCN(CCOC)CCOC)cc1)c1ccc(C)cc1` [Compound 54] showed a kinact/KI of 1.39e+06 M⁻¹ s⁻¹.

`CCC[C@@H](NC(=O)N1C(=O)C(CC)(CC)[C@@H]1Oc1ccc(CC(=O)N(C)CCN(CC)CC)cc1)c1ccc(C)cc1` [Compound 55] was tested, and the kinact/KI was 1.32e+06 M⁻¹ s⁻¹.

In the case of `CCC[C@@H](NC(=O)N1C(=O)C(CC)(CC)[C@@H]1Oc1ccc(CC(=O)N(C)CCCN(C)C)cc1)c1ccc(C)cc1` [Compound 56], the kinact/KI is reported as 1.05e+06 M⁻¹ s⁻¹.

`CCC[C@@H](NC(=O)N1C(=O)C(CC)(CC)[C@@H]1Oc1ccc(CC(=O)NCC(C)N(C)C)cc1)c1ccc(C)cc1` (stereo partly drawn) [Compound 57] showed a kinact/KI of 1.34e+06 M⁻¹ s⁻¹.

Work on `CCC[C@@H](NC(=O)N1C(=O)C(CC)(CC)[C@@H]1Oc1ccc(CC(=O)N(C)CCN(C(C)C)C(C)C)cc1)c1ccc(C)cc1` [Compound 58] yielded a kinact/KI of 1.63e+06 M⁻¹ s⁻¹.

For `CCC[C@@H](NC(=O)N1C(=O)C(CC)(CC)[C@@H]1Oc1ccc(CC(=O)N(CCC)CCC)cc1)c1ccc(C)cc1` [Compound 59], the kinact/KI was 1.14e+06 M⁻¹ s⁻¹.

`CCC[C@@H](NC(=O)N1C(=O)C(CC)(CC)[C@@H]1Oc1ccc(CC(=O)N(CC)CC)cc1)c1ccc(C)cc1` [Compound 60] was tested, and the kinact/KI was 1.08e+06 M⁻¹ s⁻¹.

Molecule `CCC[C@@H](NC(=O)N1C(=O)C(CC)(CC)[C@@H]1Oc1ccc(CC(=O)Nc2cccc(Cl)c2)cc1)c1ccc(C)cc1` [Compound 61] has a kinact/KI of 733000 M⁻¹ s⁻¹.

For `CCC[C@@H](NC(=O)N1C(=O)C(CC)(CC)[C@@H]1Oc1ccc(CC(=O)Nc2cccc(OC)c2)cc1)c1ccc(C)cc1` [Compound 62], the kinact/KI was 1.62e+06 M⁻¹ s⁻¹.

With `CCC[C@@H](NC(=O)N1C(=O)C(CC)(CC)[C@@H]1Oc1ccc(CC(=O)N(C)CCCC(=O)O)cc1)c1ccc(C)cc1` [Compound 64] the kinact/KI was 917000 M⁻¹ s⁻¹.

`CCC[C@@H](NC(=O)N1C(=O)C(CC)(CC)[C@@H]1Oc1ccc(CC(=O)N(C)CCCC(=O)NS(=O)(=O)c2ccccc2)cc1)c1ccc(C)cc1` [Compound 65] was tested, and the kinact/KI was 1.34e+06 M⁻¹ s⁻¹.
